In US7119229B2 (priority 2001, dated 2006):

Legend:
[1] = test system: MCF-7 (human breast adenomatous tumor); test: SRB cytotoxicity assay, MCF7; format: cell-based; conditions: MCF7, 72 h, read-out: ED50 MCF7
Description: (§1) Human tumor cells, including MCF-7 (human breast adenomatous tumor), MCF-7/DOX (adriamycin resistant cell strain), MRS-SA (human uterine sarcoma), MES-SA/DX5 (adriamycin resistant cell strain), A 549 (human non-small cell lung), SKOV-3 (human ovarian), SKMEL-2 (human melanoma), XF-498 (human CNS), HCT-15 (human colon) were incubated at 37° C. in the presence of 5% CO2 using a DMEM culture medium. The respective cells were seeded into each well of 96-well plates at a concentration of 2×10^3˜5×10^3 cells/well. […] Each cell line of the resultant plates was fixed with trichloroacetic acid (TCA), stained with 0.4% SRB solution and rinsed with 1% acetic acid. Thereafter, the dye was dissolved in 10 mM Tris base to measure the optical density (OD) at 520 nm.

[2] = test system: MCF-7/DOX (adriamycin resistant cell strain); test: SRB cytotoxicity assay, MCF-7/DOX; format: cell-based; conditions: Homo sapiens, MCF7-DOX, 72 h, read-out: ED50 MCF-7/DOX
Description: as §1

[3] = test system: MES-SA (human uterine sarcoma); test: SRB cytotoxicity assay, MES-SA; format: cell-based; conditions: 72 h, read-out: ED50 MES-SA
Description: as §1

[4] = test system: MES-SA/DX5 (adriamycin resistant cell strain); test: SRB cytotoxicity assay, MES-SA/DX5; format: cell-based; conditions: Homo sapiens, MES-SA/Dx5, 72 h, read-out: ED50 MES-SA/DX5
Description: as §1

[5] = test system: A 549 (human non-small cell lung); test: SRB cytotoxicity assay, A549; format: cell-based; conditions: A549, 72 h, read-out: ED50 A549
Description: as §1

SKOV-3 (human ovarian) = test: SRB cytotoxicity assay, SK-OV-3; format: cell-based; conditions: 72 hours, read-out: ED50 SK-OV-3
Description: as §1

SKMEL-2 (human melanoma) = test: SRB cytotoxicity assay, SK-MEL-2; format: cell-based; conditions: SK-MEL-2, 72 h, read-out: ED50 SK-MEL-2
Description: as §1

XF-498 (human CNS) = test: SRB cytotoxicity assay, XF498; format: cell-based; conditions: 72 hours, read-out: ED50 XF498
Description: as §1

HCT-15 (human colon) = test: SRB cytotoxicity assay, HCT15; format: cell-based; conditions: HCT-15, 72 h, read-out: ED50 HCT15
Description: as §1

[6] = test system: BALB/c mouse spleen cell (responding) and DBA/2 mouse spleen cell (stimulating); format: cell-based; conditions: MLR, FIG. 1
Description: MLR tests were carried out to determine the immunosuppressive effect of an immunosuppressive candidate material. When a responding cell (BALB/c mouse spleen cell) and a stimulating cell (DBA/2 mouse spleen cell) were cultured separately, the cells grew little. On the contrary, when the cells were simultaneously cultured, the cells were proliferated due to induction of an antigen-antibody reaction. The proliferated cells were treated with the immunosuppressive candidate material for measurement of the proliferation inhibitory extent.
After culturing for 72 hours at a CO2 incubator, a 20 μl MTS solution was added to each well, followed by further culturing for 2 to 4 hours and measuring OD at […] by using ELISA.

[7] = test system: BALB/c mouse spleen cells, B cells activated with lipopolysaccharide (LPS); test: Immunosuppressive effect test using BALB/c mouse spleen cells, LPS (B cells); format: cell-based; conditions: 20 μg/ml lipopolysaccharide, 72 hours, MTS, FIGS. 2 and 3
Description: (§2) This test was carried out to determine the immunosuppressive effect of an immunosuppressive candidate material by checking anti-proliferation of T cells and B cells. To identify the proliferation inhibitory extent, responding cells (BALB/c mouse spleen cells) were treated with an immunosuppressive candidate material, lipopolysaccharide (LPS) as a B cell activator and concanvalin A (ConA) as a T cell activator. It is known that the responding cells treated with LPS induce proliferation of B cells and those treated with ConA induce proliferation of T cells.
(§3) Responding cells (BALB/c mouse spleen cells) were seeded into each well of 96-well plates at a concentration of 2×10^5 cells/well. […] After culturing for 72 hours at a CO2 incubator, a 20 μl MTS solution was added to each well, followed by further culturing for 2 to 4 hours and measuring OD at 490 nm using ELISA.

[8] = test system: BALB/c mouse spleen cells, T cells activated with concanvalin A (ConA); test: Immunosuppressive effect test using BALB/c mouse spleen cells, ConA (T cells); format: cell-based; conditions: 2 μg/ml of ConA, 72 hours, MTS, FIGS. 2 and 3
Description: as §2, §3

TA1537 = test: Reverse mutation assay (Ames test), TA1537
Description: (§4) This assay is carried out to test mutagenicity of chemical substances using histidine auxotrophic strains that are one of Salmonella Typhimurium mutants. […] When various mutagens are added to the culture medium, only revertants generated by reverse mutation survive.
(§5) Ames test was carried out using […]. […] After incubation, the number of revertant colonies was counted. 3 plates were prepared for each test and the average was calculated.

[9] = test system: WP2 uvrA strains (tryptophan auxotrophic strains); test: Reverse mutation assay (Ames test), E. coli WP2 uvrA
Description: as §4, §5

ICR mice [10] = test: Oral administration toxicity assay; conditions: for Days for the test (death) Total: deaths/mice
ICR mice [11] = test: Acute (intravenous administration) toxicity assay; conditions: for Days for the test (death) Total: deaths/mice

COc1cc2c(c(OC)c1OC)-c1ccc(OC)c(=O)cc1[C@@H](NC(=O)c1cccc(CO[N+](=O)[O-])c1)CC2 [Compound 6, 3-nitrooxymethyl-N-(1,2,3,10-tetramethoxy-9-oxo-5,6,7,9-tetrahydro-benzo[a]heptarene-7-yl)-benzamide]
EC50 [1]: 0.02 nM | EC50 [2]: 205 nM | EC50 [3]: 0.2 nM | EC50 [4]: 773 nM | EC50 [5]: 0.1 nM | EC50 (SKOV-3 (human ovarian)): 0.2 nM | EC50 (SKMEL-2 (human melanoma)): 0.1 nM | EC50 (XF-498 (human CNS)): 0.1 nM | EC50 (HCT-15 (human colon)): 0.1 nM | immunosuppressive effect [6]: good immunosuppressive effect | anti-proliferation of B cells [7]: remarkable anti-proliferous effect | anti-proliferation of T cells [8]: remarkable anti-proliferous effect | Colony/Plate S-9 Mixture (+) (TA1537; TA1537, 317.5 μg/Plate): 11 Colony/Plate | Colony/Plate S-9 Mixture (−) (TA1537; TA1537, 317.5 μg/Plate): 8 Colony/Plate | Colony/Plate S-9 Mixture (+) (TA1537; TA1537, 625 μg/Plate): 16 Colony/Plate | Colony/Plate S-9 Mixture (−) (TA1537; TA1537, 625 μg/Plate): 10 Colony/Plate | Colony/Plate S-9 Mixture (+) (TA1537; TA1537, 1250 μg/Plate): 13 Colony/Plate | Colony/Plate S-9 Mixture (−) (TA1537; TA1537, 1250 μg/Plate): 16 Colony/Plate | Colony/Plate S-9 Mixture (+) (TA1537; TA1537, 2500 μg/Plate): 17 Colony/Plate | Colony/Plate S-9 Mixture (−) (TA1537; TA1537, 2500 μg/Plate): 11 Colony/Plate | Colony/Plate S-9 Mixture (+) (TA1537; TA1537, 5000 μg/Plate): 14 Colony/Plate | Colony/Plate S-9 Mixture (−) (TA1537; TA1537, 5000 μg/Plate): 7 Colony/Plate | Colony/Plate S-9 Mixture (+) ([9]; 317.5 μg/Plate): 12 Colony/Plate | Colony/Plate S-9 Mixture (−) ([9]; 317.5 μg/Plate): 16 Colony/Plate | Colony/Plate S-9 Mixture (+) ([9]; 625 μg/Plate): 12 Colony/Plate | Colony/Plate S-9 Mixture (−) ([9]; 625 μg/Plate): 9 Colony/Plate | Colony/Plate S-9 Mixture (+) ([9]; 1250 μg/Plate): 12 Colony/Plate | Colony/Plate S-9 Mixture (−) ([9]; 1250 μg/Plate): 10 Colony/Plate | Colony/Plate S-9 Mixture (+) ([9]; 2500 μg/Plate): 9 Colony/Plate | Colony/Plate S-9 Mixture (−) ([9]; 2500 μg/Plate): 8 Colony/Plate | Colony/Plate S-9 Mixture (+) ([9]; 5000 μg/Plate): 13 Colony/Plate | Colony/Plate S-9 Mixture (−) ([9]; 5000 μg/Plate): 11 Colony/Plate | Days for the test (death) Total (ICR mice [10]; 2 mg/kg): 0/5 | Days for the Test (death) 4 (ICR mice [10]; 5 mg/kg, day 4): 1 | Days for the test (death) Total (ICR mice [10]; 5 mg/kg): 1/5 | Days for the test (death) 2 (ICR mice [10]; 10 mg/kg, day 2): 1 | Days for the Test (death) 3 (ICR mice [10]; 10 mg/kg, day 3): 1 | Days for the test (death) Total (ICR mice [10]; 10 mg/kg): 2/5 | Days for the test (death) Total (ICR mice [11]; 5 mg/kg): 0/5 | Days for the test (death) Total (ICR mice [11]; 10 mg/kg): 0/5 | Days for the test (death) Total (ICR mice [11]; 25 mg/kg): 0/2 | Days for the test (death) 1 (ICR mice [11]; 50 mg/kg, day 1): 3 | Days for the test (death) Total (ICR mice [11]; 50 mg/kg): 3/3
